Measurements: US7745473B2, “Indole derivative for alkylating specific base sequence of DNA and alkylating agent and drug containing the derivative” (Kyoto University, priority 2004, dated 2010)
Entries after “also recorded” stand apart in the source; their conditions may differ.

How the values were obtained:
[1] = system: DNA fragment (SEQ ID NO:11) derived from pQBI63; test: DNA alkylation of 5′-Texas Red-labeled DNA fragment (994 bp); type: biochemical; details: FIG. 5
Method: A 5′-Texas Red-labeled DNA fragment (994 bp) (pQBI63; SEQ ID NO:11) was prepared by a PCR method using a 20-base-pair primer, i.e., 5′-[…]-3′ (SEQ ID NO:12), and a 5′-Texas Red-labeled 20-base-pair primer, i.e., 5′-TexRed-[…]-3′ (SEQ ID NO:13), pQBI63 plasmid being used as a template.
(§1) Analysis by polyacrylamide gel electrophoresis was performed by the following process: A standard reaction solution containing the 5′-Texas Red-end-labeled DNA fragment (10 nM), DMF (10% (v/v)), and an agent having a concentration described above in a sodium phosphate buffer (5 mM, total volume: 10 μL, pH=7.0) was charged into a microfuge tube (Eppendorf) and left standing at 23° C. for 8 hours. After completion of the reaction, the reaction was quenched by the addition of calf thymus DNA (1 mM, 1 μL). The resulting mixture was shaken at 90° C. for 5 minutes. The DNA obtained by centrifugation under reduced pressure was dissolved by the addition of 8 μl, of loading dye (fushin red solution in DMF), shaken at 94° C. for 20 minutes, and then immediately cooled to 0° C. A 2-μL aliquot was separated electrophoretically on a 6% denaturing polyacrylamide gel using a Hitachi 5500-S DNA sequencer. The following tests were conducted in a similar way. […]

[2] = system: 727-bp DNA fragment (SEQ ID NO:14); test: Sequence-specific alkylation of DNA by polyamide heterodimer; type: biochemical; details: 727-bp fragment, FIG. 7
Method: A 5′-Texas Red-labeled 727-bp DNA fragment (SEQ ID NO:14) was prepared by a PCR method using a 5′-Texas Red-labeled 20-base-pair primer, i.e., 5′-TexRed-[…]-3′ (SEQ ID NO:15), and a 21-base-pair primer, i.e., 5′-[…]-3′ (SEQ ID NO:16), a plasmid containing MLP into which the code base sequence of human β-globin was integrated being used as a template.
as §1

[3] = system: DNA fragment (446 bp; SEQ ID NO:17) containing 24 repeats of a telomeric sequence; test: DNA alkylation targeting telomeric sequence; type: biochemical; details: 446 bp fragment, nanomolar concentrations, FIG. 8
Method: A 5′-Texas Red-labeled 446-bp DNA fragment (SEQ ID NO:17 with a 24-times-repeated telomere sequence was prepared by a PCR method using a 5′-Texas Red-labeled 20-base pair primer, i.e., 5′-TexRed-[…]-3′ (SEQ ID NO:18), and a 20-base-pair primer, i.e., 5′-[…]-3′ (SEQ ID NO:19), pCR2.1 plasmid into which an oligomer having a repetitive telomere sequence was integrated from the cleavage site by EcoRI being used as a template. The resulting each DNA fragment was purified by filtration using Suprec-02. The concentration of each resulting product was determined by measuring UV absorption.
as §1, with “C.” for “C. A 2-μL aliquot was separated electrophoretically on a 6% denaturing polyacrylamide gel using a Hitachi 5500-S DNA sequencer. The following tests were conducted in a similar way.”

[4] = system: SH-SY-5Y (human neuroblast-derived cell); details: read-out: 50% cell growth inhibitory concentration (IC50), 48 hours, 0.1% DMF
Method: (§2) HCT-116 (human colon cancer-derived cell), HeLa (human cervical cancer-derived cell), HLC-2 (human lung cancer-derived cell), and SH-SY-5Y (human neuroblast-derived cell) were treated with AcImImPyPy-γ-ImPy-Indole-CBI (3-2) (10^−5 to 10^−8 M with 0.1% DMF) for 48 hours to evaluate the effect of the compound as an anticancer agent.
(§3) Evaluation of anticancer activity was made by the following process: HCT-116, HeLa, HLC-2, and SH-SY-5Y cell lines were seeded into a 96-well flat bottom plate in complete media [RPMI1640 (HCT-116, SH-SY-5Y; Sigma-Aldrich Co.) each containing 10% fetal bovine serum and Dulbecco's […] (HeLa, HLC-2, 293T, WI-38; Sigma-Aldrich Co.)] at cell densities of 4.0×10^3, 3.6×10^3, 1.6×10^3, 7.0×10^2, 5.0×10^2, and 8.0×10^2 cells/well and were precultured for 24 hours in a CO2 incubator. The media were replaced with complete media containing 0.1% DMF and 10^−5 to 10^−8 M AcImImPyPy-γ-ImPy-Indole-CBI (3-2). Incubation was performed for 48 hours in the CO2 incubator. Then, 10 μL/well of a Cell Counting Kit-8 (Dojindo Laboratories) was added. The specimens were left standing for 2 hours in the CO2 incubator. Absorbance was measured with a microplate reader MPR-A4I (Tosoh Corp.).

[5] = system: HLC-2 (human lung cancer-derived cell); details: read-out: 50% cell growth inhibitory concentration (IC50); HLC-2, 48 hours, 0.1% DMF
Method: as §2, §3

[6] = system: HeLa (human cervical cancer-derived cell); details: read-out: 50% cell growth inhibitory concentration (IC50), 48 hours, 0.1% DMF
Method: as §2, §3

[7] = system: cancerous cell lines versus normal cell lines; details: cancerous versus normal cell lines (293T, WI-38)
Method: as §2, §3

[8] = system: HCT-116 (human colon cancer-derived cell); details: read-out: 50% cell growth inhibitory concentration (IC50); HCT-116, 48 hours, 0.1% DMF
Method: as §2, §3

[9] = system: long-chain DNA (λ-F10906; SEQ ID NO:8); test: DNA alkylation of 5′-Texas Red-labeled long-chain DNA, analysed by polyacrylamide gel electrophoresis; type: biochemical; details: λ-F10906, nanomolar concentrations, FIG. 4
Method: A 5′-Texas Red-labeled DNA fragment (537 bp) (λ-F10906; SEQ ID NO:8) was prepared by a PCR method using a 5′-Texas Red-labeled 23-base-pair primer, i.e., 5′-TexRed-[…]-3′ (λ-DNA forward, 10960-10982; SEQ ID NO:9), and a 20-base-pair primer, i.e., 5′-[…]-3′ (λ-DNA reverse, 37007-37026; SEQ ID NO:10), λ-DNA being used as a template.
(§4) Analysis by polyacrylamide gel electrophoresis was performed by the following process: A standard reaction solution containing the 5′-Texas Red-end-labeled DNA fragment (10 nM), DMF (10% (v/v)), and an agent having a concentration described above in a sodium phosphate buffer (5 mM, total volume: 10 μL, pH=7.0) was charged into a microfuge tube (Eppendorf) and left standing at 23° C. for 8 hours. After completion of the reaction, the reaction was quenched by the addition of calf thymus DNA (1 mM, 1 μL). The resulting mixture was shaken at 90° C. for 5 minutes. The DNA obtained by centrifugation under reduced pressure was dissolved by the addition of 8 μl, of loading dye (fushin red solution in DMF), shaken at 94° C. for 20 minutes, and then immediately cooled to 0° C. A 2-μL aliquot was separated electrophoretically on a 6% denaturing polyacrylamide gel using a Hitachi 5500-S DNA sequencer. The following tests were conducted in a similar way.
The reaction of compounds (3-2), (3-4), and (3-5) with DNA was studied using the long-chain DNA (λ-F10906; SEQ ID NO:8). The DNA-alkylating ability of each compound was evaluated.

[10] = system: long-chain DNA (pUC-II; SEQ ID NO:4, pUC-I′; SEQ ID NO:1); test: as above; type: biochemical; details: 8 hours, pUC-II and pUC-I′, FIG. 2
Method: A 5′-Texas Red-labeled DNA fragment (450 bp) (pUC-I′, SEQ ID NO:1) was prepared by a PCR method using a 5′-Texas Red-labeled 20-base-pair primer, i.e., 5′-TexRed-[…]-3′ (pUC18 forward, 780-799; SEQ ID NO:2), and a 20-base-pair primer, i.e., 5′-[…]-3′ (pUC18 reverse, 1459-1478; SEQ ID NO:3), puc18 being used as a template. The DNA fragment was in a double-stranded state including a complementary strand (the following fragments were in the same state).
A 5′-Texas Red-labeled DNA fragment (450 bp) (pUC-II, SEQ ID NO:4) was prepared by a PCR method using a 5′-Texas Red-labeled 21-base-pair primer, i.e., 5′-TexRed-[…]-3′ (pUC18 reverse, 1861-1881; SEQ ID NO:5), and a 19-base-pair primer, i.e., 5-TGTAAAACGACGGCCAGTG-3′ (pUC18 forward, 328-345; SEQ ID NO:6), puc18 being used as a template.
as §4
The reaction of compounds (3-2) and (3-3) prepared in the above-described Synthesis Examples with DNA was studied using the long-chain DNA (pUC-II; SEQ ID NO:4, pUC-I′; SEQ ID NO:1). An alkylation reaction was performed for 8 hours. The sequence alkylated was analyzed by polyacrylic gel electrophoresis for sequence determination. […] However, the difference in sequence recognition ability was observed. […] From the stand point of the sequence recognition ability, the molecular design of compound (3-2) was excellent.

[11] = system: 39 cultured human cancer cell lines; test: Anticancer activity screening on 39 cultured human cancer cell lines (Japanese Foundation for Cancer Research); details: mean of 39 cultured human cancer cell lines
From the text: Evaluation of the anticancer activity on the 39 cultured human cancer cell lines from breast cancer cell line to prostate cancer cell line was made by screening test performed in The Japanese Foundation for Cancer Research.

5′-YG(A/T)CR-3′ sequence = details: low concentration, dimer, both chains, sites 5 base pairs apart; cited from earlier work

For `CC(=O)Nc1cn(C)c(C(=O)Nc2cn(C)c(C(=O)Nc3cc(C(=O)Nc4cc(C(=O)NCCC(=O)Nc5cc(C(=O)Nc6cc(C(=O)NCCCC(=O)Nc7cn(C)c(C(=O)Nc8cc(C(=O)NCCC(=O)Nc9cn(C)c(C(=O)Nc%10cc(C(=O)Nc%11ccc%12[nH]c(C(=O)N%13CC%14CC%14%15C%13=CC(=O)c%13ccccc%13%15)cc%12c%11)n(C)c%10)n9)n(C)c8)n7)n(C)c6)n(C)c5)n(C)c4)n(C)c3)n2)n1` (stereo not shown) [compound (3-6), AcImImPyPyβPyPy-γ-ImPyβImPy-Indole-CBI], the “alkylated sites (sequence recognition)” value [1] was “alkylation (site 2) due to 1-bp-mismatch recognition was observed; also recorded: alkylation of AT-rich base sequences (sites 1 and 3) was also observed” and the “efficiency of DNA alkylation” value [1] was “efficiently alkylated 1,000-base-pair DNA at nanomolar concentrations”.
In the case of `CC(=O)Nc1cn(C)c(C(=O)Nc2cn(C)c(C(=O)Nc3cc(C(=O)NCCC(=O)Nc4cn(C)c(C(=O)Nc5cc(C(=O)Nc6ccc7[nH]c(C(=O)N8CC9CC9%10C8=CC(=O)c8ccccc8%10)cc7c6)n(C)c5)n4)n(C)c3)n2)n1` (stereo not drawn) [compound (3-7), AcImImPy-β-ImPy-Indole-CBI], the “alkylated sites in the presence of compound (6)” value ([2]; compound (6) 500 nM, heterodimer) is reported as “alkylation (site 4) based on accurate 10-base-pair recognition was observed” and the “alkylated sites, compound alone” value ([2]; nanomolar concentrations) is reported as “efficient alkylation of sites 1 and 2 based on a hairpin mode of recognition and of site 3 based on a linear-chain mode of recognition”.
In the case of `CC(=O)Nc1cn(C)c(C(=O)Nc2cn(C)c(C(=O)Nc3cn(C)c(C(=O)NCCCC(=O)Nc4cc(C(=O)Nc5cc(C(=O)Nc6ccc7[nH]c(C(=O)N8CC(CCl)c9c8cc(O)c8ccccc98)cc7c6)n(C)c5)n(C)c4)n3)n2)n1` (stereo not shown) [compound (4-3), AcImImIm-γ-PyPy-Indole-seco-CBI], the telomeric-sequence-specific alkylation [3] is reported as “Efficient telomeric-sequence-specific alkylation (5′-ACCCTA-3′) in a hairpin mode of recognition”.
“AcImImPyPy-γ-ImPy-Indole-CBI [compound (3-2)]” showed an IC50 [4] of 0.00743 µM, an IC50 [5] of 0.0535 µM and an IC50 [6] of 0.0597 µM. For the same compound, the “anticancer activity against the cancerous cell lines relative to the normal cell lines” value [7] was “about 10 times”, the IC50 [8] was 0.0742 µM and the “sequence-specific DNA alkylation, alkylated sites” value [9] was “Sequence-specific DNA alkylation (site 2 and 3: 5′-TGACCA-3′, site 4: 5′-AGACCA-3′, site 5: 5′-TGTCCA-3′)”. The “alkylated sites (sequence recognition ability)” value [10] was “alkylation in only site 3 (5′-TGACCA-3′) and site 6 (5′-AGTCCA-3′), which were match sequences, was observed”, the “efficiency of DNA alkylation” value [10] was “efficient DNA alkylation comparable with that of a known Py-Im polyamide having a vinyl linker was observed at nanomolar concentrations” and the “mean log IC50 value of 39 cell lines” value ([11]; log value, FIG. 9) was “about −7”. It also gave an IC50 ([11]; read-out: mean IC50 of 39 cell lines, printed in brackets after the log value) of roughly 0.1 µM.
For ImPyLDu86, the alkylation efficiency (5′-YG(A/T)CR-3′ sequence) is given as 70%.
